Test results as given in ChEMBL document CHEMBL1671703, “Bile acids improve the antimicrobial effect of rifaximin” (2010).
Calls of active or inactive are those of the source. The calls are words filed in the database; no cut-off is given here.

Experiments:
Escherichia coli [1] = assay: Antimicrobial activity against Escherichia coli H10407 assessed as growth inhibition at 16 ug/ml; assay type: functional; conditions: ETEC H10407
Escherichia coli [2] = assay: Antimicrobial activity against Escherichia coli H10407 assessed as decrease in cell density at 16 ug/ml after 4 hrs; assay type: functional; conditions: ETEC H10407
Escherichia coli [3] = assay: Antimicrobial activity against Escherichia coli H10407 assessed as decrease in cell density at 16 ug/ml after 4 hrs in presence of 4 mM human bile acid; assay type: functional, ETEC H10407
Escherichia coli [4] = assay: Antimicrobial activity against Escherichia coli H10407 assessed as decrease in cell density at 16 ug/ml after 4 hrs in presence of 4 mM pooled synthetic bile acid; assay type: functional, ETEC H10407
Escherichia coli [5] = assay: Antimicrobial activity against Escherichia coli H10407 assessed as decrease in cell density at 16 ug/ml after 4 hrs in presence of 4 mM cholic acid; assay type: functional, ETEC H10407
Escherichia coli [6] = assay: Antimicrobial activity against Escherichia coli H10407 assessed as decrease in cell density at 16 ug/ml after 4 hrs in presence of 4 mM deoxycholic acid; assay type: functional, ETEC H10407
Escherichia coli [7] = assay: Antimicrobial activity against Escherichia coli H10407 assessed as decrease in cell density at 16 ug/ml after 4 hrs in presence of 4 mM chenodeoxycholic acid; assay type: functional, ETEC H10407
Escherichia coli [8] = assay: Antimicrobial activity against Escherichia coli H10407 assessed as decrease in cell density at 16 ug/ml after 4 hrs in presence of 4 mM glycocholic acid; assay type: functional, ETEC H10407
Escherichia coli [9] = assay: Antimicrobial activity against Escherichia coli H10407 assessed as decrease in cell density at 16 ug/ml after 4 hrs in presence of 4 mM taurocholic acid; assay type: functional, ETEC H10407
Escherichia coli [10] = assay: Antimicrobial activity against Escherichia coli H10407 assessed as decrease in cell density at 16 ug/ml after 4 hrs in presence of 4 mM lithocholic acid; assay type: functional, ETEC H10407
Escherichia coli [11] = assay: Inhibition of RNA synthesis in Escherichia coli H10407 assessed as inhibition of beta-galactosidase expression relative to control; assay type: functional; conditions: ETEC H10407
Escherichia coli [12] = assay: Inhibition of RNA synthesis in Escherichia coli H10407 assessed as inhibition of beta-galactosidase expression at 8 ug/ml in presence of 4 mM bile acid; assay type: functional, ETEC H10407
Escherichia coli [13] = assay: Inhibition of RNA synthesis in Escherichia coli H10407 assessed as inhibition of beta-galactosidase expression at 16 ug/ml in presence of […] bile acid; assay type: functional, ETEC H10407
Escherichia coli [14] = assay: Inhibition of RNA synthesis in Escherichia coli H10407 assessed as inhibition of beta-galactosidase expression at 32 ug/ml in presence of 4 mM bile acid; assay type: functional, ETEC H10407
Escherichia coli [15] = assay: Decrease in protein expression in Escherichia coli H10407 at 16 ug/ml after 4 hrs; assay type: functional, ETEC H10407; parameters: scale not given: the % may be the effect or the level left
Escherichia coli [16] = assay: Bacteriostatic activity against Escherichia coli H10407 at 8 ug/ml in presence of bile acid relative to absence of bile acid; assay type: functional, ETEC H10407
Escherichia coli [17] = assay: Bacteriostatic activity against Escherichia coli H10407 at 16 ug/ml in presence of bile acid relative to absence of bile acid; assay type: functional, ETEC H10407

## CO[C@H]1/C=C/O[C@@]2(C)Oc3c(C)c(O)c4c(O)c(c5c(nc6cc(C)ccn65)c4c3C2=O)NC(=O)/C(C)=C\C=C\[C@H](C)[C@H](O)[C@@H](C)[C@@H](O)[C@@H](C)[C@H](OC(C)=O)[C@@H]1C [RIFAXIMIN]
Escherichia coli [1]
  inhibition: Active
Escherichia coli [2]
  Activity: Active
Escherichia coli [3]
  inhibition (INH): 72.8%
Escherichia coli [4]
  inhibition (INH): 70.6%
Escherichia coli [5]
  inhibition (INH): 95.5%
Escherichia coli [6]
  inhibition (INH): 93.8%
Escherichia coli [7]
  inhibition (INH): 89.2%
Escherichia coli [8]
  inhibition (INH): 80.8%
Escherichia coli [9]
  inhibition (INH): 77.6%
Escherichia coli [10]
  inhibition (INH): 43.9%
Escherichia coli [11]
  inhibition: Active
Escherichia coli [12]
  inhibition (INH): 33%
Escherichia coli [13]
  inhibition (INH): 49%
Escherichia coli [14]
  inhibition (INH): 82%
Escherichia coli [15]
  Activity: 59%
Escherichia coli [16]
  fold change (FC): 2
Escherichia coli [17]
  fold change (FC): 5.5
